The values below come from PMC3013379 (Bioorganic & Medicinal Chemistry Letters, 2011).

Broadly, the IC50 is the concentration at which inhibition is half-maximal.

Assay [1] addresses T1, human recombinant IKK-β (Homo sapiens, UniProt O14920).
T1 sequence (O14920 1-756): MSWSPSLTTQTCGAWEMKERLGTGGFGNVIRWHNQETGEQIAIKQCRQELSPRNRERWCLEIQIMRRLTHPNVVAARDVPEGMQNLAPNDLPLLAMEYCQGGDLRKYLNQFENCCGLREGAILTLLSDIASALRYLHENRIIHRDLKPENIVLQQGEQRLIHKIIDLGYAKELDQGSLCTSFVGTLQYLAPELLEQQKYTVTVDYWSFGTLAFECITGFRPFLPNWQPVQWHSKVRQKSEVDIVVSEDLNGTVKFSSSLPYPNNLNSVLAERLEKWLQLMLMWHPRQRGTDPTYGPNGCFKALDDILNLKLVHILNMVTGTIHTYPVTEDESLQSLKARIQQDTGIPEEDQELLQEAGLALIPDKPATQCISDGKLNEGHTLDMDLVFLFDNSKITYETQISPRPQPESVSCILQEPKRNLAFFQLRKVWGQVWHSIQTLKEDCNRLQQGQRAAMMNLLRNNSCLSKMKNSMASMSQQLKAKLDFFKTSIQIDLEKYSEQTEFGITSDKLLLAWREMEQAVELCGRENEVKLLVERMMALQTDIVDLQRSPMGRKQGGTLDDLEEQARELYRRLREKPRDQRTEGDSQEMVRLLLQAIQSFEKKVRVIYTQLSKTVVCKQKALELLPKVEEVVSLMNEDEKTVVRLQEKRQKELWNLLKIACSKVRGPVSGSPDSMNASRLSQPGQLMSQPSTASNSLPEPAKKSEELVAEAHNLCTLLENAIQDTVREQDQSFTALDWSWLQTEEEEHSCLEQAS
The assay can be described thus: ELISA-based. The format is biochemical.

Assay [2] relates to NF-κB activation induced by TNF-α in HEK293 cells (293/NFκB-luc). The format is cell-based. Conditions: HEK293 NF-κB luciferase reporter cells, 2 ng/ml TNF-α for 6 h. A general note: A reporter such as luciferase makes a cellular process visible.

For `O=C(OCCC12CC3CC(CC(C3)C1)C2)c1ccc(NCc2cc(O)ccc2O)cc1` [Compound 8, 2-(1-adamantyl)ethyl 4-[(2,5-dihydroxyphenyl)methylamino]benzoate], the IC50 in assay [1] came to 6.95 ± 0.55 µM. Moreover, the “Effect on TNF-α-induced luciferase activity (in words)” value in assay [2] is listed as “inhibited TNF-α-induced luciferase activity dose-dependently”.
For `NC(=O)Nc1sc(-c2ccc(F)cc2)cc1C(N)=O` [IKK-β inhibitor IV, reference compound], the “Effect on TNF-α-induced luciferase activity (in words)” value in assay [2] is on record as “inhibited TNF-α-induced luciferase activity dose-dependently”.
